We go through 4 molecules from patent US20220048988A1, “CELLS EXPRESSING ANTIBODIES TARGETING HUMAN IMMUNODEFICIENCY VIRUS AND METHODS OF USING THE SAME” (priority 2018, published 2022).

Assay [1] deals with non-expressing cells. Put plainly: HIV binding: non-expressing cells (flow cytometry). The note with it: supernatant of transduced cells. A general note: In flow cytometry, cells or beads pass a laser one at a time.
Assay [2] relates to pseudovirus. The assay is described as follows: Standard pseudovirus neutralization assay. Type of assay: cell-based, HIV. As to the method:
Virus neutralization by secreted 10-1074. We also tested whether the supernatants secreted from TbnAb are capable of neutralizing HIV by using a standard pseudovirus assay. Briefly, supernatants obtained from TbnAbs were diluted five fold and incubated with pseudovirus. Target cells were then added, and a single-round of infection was allowed to proceed for 48 h^1. In certain lines, we observed 20-30% neutralization of virus at this single concentration (data not shown). […] (data not shown). […] Thus, the data support that the 10-1074 in these supernatants is functionally equivalent to purified 10-1074 on a per concentration basis.

The test system of assay [3] is HIV envelope expressing HeLa cells. The assay is described as follows: HIV binding: HIV envelope expressing HeLa cells (flow cytometry). As to conditions: supernatant of transduced cells. The method, then:
HIV envelope expressing HeLa cells were obtained from NIH AIDS Reagent Program (69T1 RevEnv Cells, #3336). HeLa Envelope cells were fixed with 4.2% paraformaldehyde (BD, #554655) for 20 minutes at 4° C. Cells were washed in chilled Facs Buffer (PBS+2% FBS) and incubated in supernatant containing secreted antibody from transduced Jurkat T cells or non-specific antibodies from nontransduced Jurkat T cells for 1 hour at room temperature. Cells were washed an additional two times in Facs Buffer and incubated with goat anti-human IgG (H+L) FITC (Life Technologies, #H10301) for 30 minutes at room temperature.
To test whether the T cell secreted antibodies maintain their ability to recognize HIV envelope, we used HeLa cells expressing Env obtained from the AIDS reagent program.

For assay [4], the system named is HIV-infected CD4+ T-cells. The assay is described as follows: Binding of secreted 10-1074 bnAb to HIV-infected CD4+ T-cells (flow cytometry). As to conditions: virus from latent reservoir of participant OM5334, high MOI (~70% Gag+). The source says: Binding of secreted 10-1074 bnAb to HIV-Infected CD4^+ T-cells. […] These cells were then stained with a fluorochrome-conjugated anti-human-IgG1 antibody, and analyzed by flow cytometry. […] We therefore performed an additional experiment using a lower multiplicity of infection (MOI) of the HIV molecular clone SF162. […] However, it has been well-established that Ab-binding to infected cells is predictive of ADCC^6.

Assay [5] relates to viruses isolated from quantitative viral outgrowth assay (QVOA) supernatants. Put plainly: Infected-cell binding with viruses isolated from QVOA supernatants. More on the design: species or system HIV. The source says:
(§1) We developed a method to perform paired testing of neutralization and infected-cell binding (predictive of ADCC^6) and applied this to 36 viruses that we isolated from quantitative viral outgrowth assay (QVOA) supernatants, using a panel of 14 clinically relevant bnAbs.

The subject of assay [6] is HIV. The note with it: in a subset of the population; cited from earlier work.
Assay [7] relates to HIV SF162. Put plainly: Viral inhibition assay (p24). The note with it: antibody alone, absence of NK cells, n=2 replicates. The assay is classed as cell-based.
For assay [8], the system named is viruses isolated from quantitative viral outgrowth assay (QVOA) supernatants. Put plainly: Neutralization of viruses isolated from QVOA supernatants. Type of assay: cell-based, HIV.
Text: as §1

Assay [9] has as its target HIV envelope (Env) expressed on HeLa cells (69T1 RevEnv Cells) (HIV). The assay is described as follows: cell-based or functional assay.
Assay [10] concerns the target 36 viruses isolated from quantitative viral outgrowth assay (QVOA) supernatants. Put plainly: cell-based or functional assay.

On to “TbnAb secreted 10-1074: 10-1074 antibody secreted into supernatants by transduced T cells”, for which the “binding to non-expressing cells” value in assay [1] is “not”. Besides, the neutralization of virus in assay [2] (supernatants diluted five fold (0.03 ug/ml of 10-1074), single-round infection 48 h, certain lines) is 20-30%. In assay [3], the “binding to envelope-expressing cells” value is recorded as “bind”. In addition, the results for the “binding to HIV-infected CD4+ T cells” value in assay [4] and in [4] (listed as antibody secreted by HIV specific TbnAb cell lines) were “specific binding” and “specifically binds”, respectively.
For the molecule “10-1074: Monoclonal antibody 10-1074 targets the V3 glycan supersite on the HIV-1 envelope (Env) protein; broadly neutralizing”, the “binding characteristics (breadth and potency)” value in assay [5] (36 viruses, panel of 14 bnAbs) is recorded as “superior binding characteristics”. Besides, the infected cell binding entry is on record as “lack of 10-1074 binding” in assay [5] (OM5162 virus isolate #3) and “binding” in assay [5] (patient OM5162 virus isolate #1). Also, the “concentration giving 20-30% neutralization” value in assay [2] (purified antibody curves) lay in the range of 0.01 to 0.1 µg/mL. Besides, the “HIV RNA levels” value in [6] is given as “transiently decrease HIV RNA levels”. Also, the “HIV p24 (viral inhibition)” value in [7] (FIG. 10A) came to 6892.442±168.555; in assay [7] (FIG. 10B), 757.911±163.351; in assay [7] (FIG. 10C), 22914.671±2305.507. Moreover, the “binding to HIV-infected CD4+ T cells” value in assay [4] is given as “efficient binding”. In assay [8] (36 viruses isolated from QVOA supernatants), the viruses potently neutralized is recorded as 24/36. For the same molecule, the “median IC50 against reservoir viruses” value in assay [8] (reservoir viruses) turned out to be 0.3 µg/mL.

B1: T cell-secreted 10-1074 antibody from the 10-1074 Ab construct (IgG3 constant region) (antibody, V domains shown)
VH: QVQLQESGPGLVKPSETLSVTCSVSGDSMNNYYWTWIRQSPGKGLEWIGYISDRESATYNPSLNSRVVISRDTSKNQLSLKLNSVTPADTAVYYCATARRGQRIYGVVSFGEFFYYYSMDVWGKGTTVTVSS
VL: SYVRPLSVALGETARISCGRQALGSRAVQWYQHRPGQAPILLIYNNQDRPSGIPERFSGTPDINFGTRATLTISGVEAGDEADYYCHMWDSRSGFSWSFGGATRLTVLV
In assay [9], B1 showed an NK cell killing (ADCC; europium cytotoxicity assay, primary NK cells) of 34.5 and an increase in killing from ADCC of 10.5%.

B2: 10-1074 antibody (purified) (antibody, V domains shown)
VH: QVQLQESGPGLVKPSETLSVTCSVSGDSMNNYYWTWIRQSPGKGLEWIGYISDRESATYNPSLNSRVVISRDTSKNQLSLKLNSVTPADTAVYYCATARRGQRIYGVVSFGEFFYYYSMDVWGKGTTVTVSS
VL: SYVRPLSVALGETARISCGRQALGSRAVQWYQHRPGQAPILLIYNNQDRPSGIPERFSGTPDINFGTRATLTISGVEAGDEADYYCHMWDSRSGFSWSFGGATRLTVL
In the case of B2, the median IC50 (neutralization) in [10] came out at 0.3 µg/mL.
